US5942523A, “Compounds which are selective antagonists of the human NK3 receptor and their use as medicinal products and diagnostic tools” (Sanofi, priority 1994, dated 1999)
Residues, ends and D or L forms follow the SMILES beside them.

Columns and labels:
human NK3 receptor = target: T1, human NK3 receptor (Homo sapiens, UniProt P29371); assay: binding of [^125 I]His[MePhe^7 ]NKB to the cloned human NK3 receptors expressed by CHO cells; details: from comparison of Ki values for human NK3 and other tachykinin receptors
T1 construct: expressed in transfected cells; host or cells: CHO cells
T1 sequence (P29371 1-465): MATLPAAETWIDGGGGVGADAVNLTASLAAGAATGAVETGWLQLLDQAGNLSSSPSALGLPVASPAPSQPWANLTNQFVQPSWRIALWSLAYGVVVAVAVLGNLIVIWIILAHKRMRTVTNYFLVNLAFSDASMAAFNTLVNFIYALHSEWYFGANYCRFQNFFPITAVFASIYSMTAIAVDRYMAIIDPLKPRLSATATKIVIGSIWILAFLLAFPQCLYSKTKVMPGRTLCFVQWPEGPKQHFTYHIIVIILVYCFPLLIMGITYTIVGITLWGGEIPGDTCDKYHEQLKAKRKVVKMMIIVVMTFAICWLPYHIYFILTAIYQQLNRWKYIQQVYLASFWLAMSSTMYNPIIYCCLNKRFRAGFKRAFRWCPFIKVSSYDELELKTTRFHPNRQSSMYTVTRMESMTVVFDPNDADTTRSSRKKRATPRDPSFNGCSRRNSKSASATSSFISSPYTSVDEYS
Description: In studies on the binding of a ligand, the inhibition constant Ki is defined by the Cheng-Prusoff equation (in Receptor Binding in Drug Research, eds. R. A. O'BRIEN. Marcel Dekker, New York, 1986): [formula] [L]: ligand concentration Kd: dissociation constant of the ligand,
The affinity of the compounds of formula (I') for the tachykinin receptors was evaluated in vitro by several biochemical assays using radioligands:
3) The binding of [^125 I]His[MePhe^7 ]NKB to the NK3 receptors of rat cerebral cortex, of guinea pig cerebral cortex and of gerbil cerebral cortex as well as to the cloned human NK3 receptors expressed by CHO cells (Buell et al., FEBS Letters, 1992, 299, 90-95).
The assays were carried out according to X. Emonds-Alt et al. (Eur. J. Pharmacol., 1993, 250, 403-413).

NK3 receptor [1] = assay: rotating behavior induced by intrastriatal administration of senktide in gerbils; type: in vivo; details: unilateral application in the gerbil striatum; agonist alone
Description: (§1) The compounds according to the present invention were also evaluated in vivo on two animal models.

NK3 receptor [2] = assay: hypertension induced by intravenous or intracerebroventricular injection of senktide in guinea pigs; type: in vivo, guinea pig; details: agonist alone
Description: as §1

CN(CC(CCCN1CCC(O)(c2ccccc2)CC1)c1ccc(Cl)c(Cl)c1)C(=O)c1ccccc1.Cl (stereo not shown) [Example 22 of Application EP 474561, N-Methyl-N-[2-(3,4-dichlorophenyl)-5-(4-hydroxy-4-phenylpiperid-1-yl)pentyl]benzamide hydrochloride]
selectivity / specificity for the human NK3 receptor (human NK3 receptor): high specificity

Cl.O=C1CCC(CCN2CCC(O)(c3ccccc3)CC2)(c2ccc(Cl)c(Cl)c2)CN1Cc1ccccc1 (stereo not shown) [compound A, 5-[2-(4-hydroxy-4-phenylpiperid-1-yl)ethyl]-5-(3,4-dichlorophenyl)-1-benzylpiperid-2-one hydrochloride]
selectivity / specificity for the human NK3 receptor (human NK3 receptor): not selective for the human NK3 receptor

CSCC[C@H](NC(=O)[C@H](CC(C)C)NC(=O)CNC(=O)[C@H](Cc1ccccc1)N(C)C(=O)[C@H](Cc1ccccc1)NC(=O)[C@H](CC(=O)O)NC(=O)CCC(=O)O)C(N)=O [senktide] (HELM PEPTIDE1{[O=C(O)CCC(=O)[*:2]].D.F.[meF].G.L.M.[am]}$$$$V2.0)
rotating behavior (NK3 receptor [1]): strong contralateral rotations
hypertension (NK3 receptor [2]): induces a hypertension
